The subject of one assay is Unfractionated heparin. Nature of the assay: aPTT clotting assay, UFH 0.4 U/mL in plasma (Example 10). The assay is classed as biochemical. The protocol: aPTT clotting Assay: Unfractionated heparin was mixed with plasma at a final concentration of 0.4 U/mL (or concentration which increases aPTT time to between 120 and 300 seconds). […] The ACL Elite Hemostasis analyzer (Beckman Coulter™) was used to add aPTT reagent (HemosIL SynthASil) to supplemented plasma. Clotting was initiated by addition of CaCl2 and time to clot was recorded.

Another assay has as its system UFH. Nature of the assay: FXa amidolytic assay (Example 10), UFH. To be noted: read-out: Heparin FXa uM EC50.
The next assay relates to enoxaparin. Nature of the assay: FXa amidolytic assay (Example 10), enoxaparin. To be noted: read-out: Enox FXa EC50.
A further assay relates to tinzaparin. Put plainly: FXa amidolytic assay (Example 10), tinzaparin. To be noted: read-out: Tinzap FXa EC50.
For the next assay, the system named is fondaparinux. Nature of the assay: FXa amidolytic assay (Example 10), fondaparinux. To be noted: read-out: Fondap FXa EC50.
Assay [1] has as its system isolated human erythrocytes. Nature of the assay: cells. The assay is classed as cell-based. Conditions: human RBC, 1 hour at 37° C.; for EC50: Homo sapiens, Erythrocyte, 1 h, read-out: Hemolysis EC50. The protocol:
Hemolysis assay: Cytotoxicity was also evaluated in a hemolysis assay using isolated human erythrocytes. Pooled whole human blood was centrifuged to separate the red blood cells (RBC). The isolated RBCs were rinsed and diluted in Tris-buffered saline (TBS buffer, pH 7.4) to obtain a 0.22% RBC stock suspension. Serial two-fold dilutions of test agent were assayed over a concentration range of 1000 to 0.48 μg/ml with shaking for 1 hour at 37° C. At the conclusion of the incubation time, samples were centrifuged and 30 μl of the supernatant was added to 100 μl H2O. OD405 measurements were read for hemoglobin concentration. The bee venom peptide melittin was used as a positive control. EC50 values were determined using a four parameter logistic equation: Y=Bottom+(Top-Bottom)/(1+10̂((LogEC50-X)*HillSlope)).

Setting [2] is: unfractionated heparin 0.4 U/mL in plasma, aPTT clotting.
The mark [3] stands for this setting: UFH 0.03 units/mL, human antithrombin, bovine Factor Xa.
Where [4] appears, read: enoxaparin 0.1 ug/ml, human antithrombin, bovine Factor Xa.
[5] abbreviates: tinzaparin 0.1 ug/ml, human antithrombin, bovine Factor Xa.
Where [6] appears, read: fondaparinux 0.02 μg/mL, human antithrombin, bovine Factor Xa.

Converted amounts (≈) assume the structure as drawn. Where two headings read alike, the source gives them in different places.

Experimental for enoxaparin: (§1) Two μl of test agent are added (range between 0.01 and 23 ug/ml) and incubated for 5 minutes at 23° C. Bovine Factor Xa was added to a final concentration of 0.636 nkat/mL and incubated for a further 10 minutes at 23° C.
Experimental for fondaparinux: as §1
Experimental for tinzaparin: as §1

In general, EC50 refers to the concentration needed to bring the measured effect to its halfway point. As to `COc1cc(OC)c(C(=O)NCCNC(=O)c2cc(C(=O)NCCN)c(OC)cc2OC)cc1C(=O)O` [Compound 387], the EC50 is over 10000 nM in the assay with Unfractionated heparin (setting [2]); over 20 µM in the assay with UFH (setting [3]); over 5000 nM in the assay with enoxaparin (setting [4]); over 5000 nM in the assay with tinzaparin (setting [5]); over 10000 nM in the assay on fondaparinux (setting [6]).

Take `COc1cc(OC)c(C(=O)NCCNC(=O)c2cc(C(=O)NCCNC(=O)c3cc(C(=O)NCCN)c(OC)cc3OC)c(OC)cc2OC)cc1C(=O)NCCN` [Compound 386]: the EC50 in the assay with UFH (setting [3]) is 19.4 µM; with enoxaparin (setting [4]), over 5000 nM; in the assay on tinzaparin (setting [5]) it was 7240 nM; in the assay on fondaparinux (setting [6]), over 10000 nM.

On to `COc1cc(OC)c(C(=O)NC2CCN(C(=O)c3cc(C(=O)NCCN)c(OC)cc3OC)CC2)cc1C(=O)O` [Compound 385], for which the EC50 in the assay with Unfractionated heparin (setting [2]) is over 10000 nM; in the assay with UFH (setting [3]), over 20 µM; in the assay on enoxaparin (setting [4]), over 5000 nM; with tinzaparin (setting [5]), over 5000 nM; in the assay with fondaparinux (setting [6]), over 10000 nM.

As for `COc1ccc(NC(=O)[C@@H](CCCNC(N)=O)NC(=O)c2cc(NC(=O)[C@@H](CCCNC(N)=O)NC(=O)c3cc(NC(=O)[C@@H](CCCNC(=N)N)NC(=O)c4cc(NC(=O)[C@H](N)CCCNC(N)=O)ccc4OC)ccc3OC)ccc2OC)cc1C(N)=O` [Compound 372], the EC50 with Unfractionated heparin (setting [2]) is 2970 nM; with UFH (setting [3]) it was over 10 µM; in the assay with enoxaparin (setting [4]), 225 nM; in the assay with tinzaparin (setting [5]) it was 150 nM; in the assay with fondaparinux (setting [6]), 544 nM.

Regarding `COc1cc(OC)c(C(=O)N2CCC(NC(=O)c3cc(C(=O)NC4CCN(C(=O)c5cc(C(=O)NCCN)c(OC)cc5OC)CC4)c(OC)cc3OC)CC2)cc1C(=O)NCCN` [Compound 384], the EC50 in the assay with Unfractionated heparin (setting [2]) is over 10000 nM; in the assay on UFH (setting [3]) it was over 20 µM; with enoxaparin (setting [4]), over 5000 nM; in the assay with tinzaparin (setting [5]), over 5000 nM; with fondaparinux (setting [6]), over 10000 nM.

With `COc1ccc(NC(=O)[C@@H](CCCNC(N)=O)NC(=O)c2cc(NC(=O)[C@@H](CCCNC(N)=O)NC(=O)c3cc(NC(=O)[C@@H](CCCNC(N)=O)NC(=O)c4cc(NC(=O)[C@H](N)CCCNC(=N)N)ccc4OC)ccc3OC)ccc2OC)cc1C(N)=O` [Compound 373], the EC50 in the assay with Unfractionated heparin (setting [2]) was 2360 nM; with UFH (setting [3]), over 10 µM; in the assay with enoxaparin (setting [4]), 123 nM; with tinzaparin (setting [5]), 123 nM; in the assay with fondaparinux (setting [6]) it was over 10000 nM.

Turning to `COc1ccc(NC(=O)[C@@H](CCCNC(=N)N)NC(=O)c2cc(NC(=O)[C@@H](CCCNC(=N)N)NC(=O)c3cc(NC(=O)[C@@H](CCCNC(N)=O)NC(=O)c4cc(NC(=O)[C@H](N)CCCNC(=N)N)ccc4OC)ccc3OC)ccc2OC)cc1C(N)=O` [Compound 219], the EC50 is 1170 nM with Unfractionated heparin (setting [2]); 0.153 µM in the assay on UFH (setting [3]); 95 nM in the assay on enoxaparin (setting [4]); 187 nM in the assay on tinzaparin (setting [5]); 731 nM in the assay on fondaparinux (setting [6]).

With `COc1ccc(NC(=O)[C@H](CCCNC(=N)N)NC(=O)c2cc(NC(=O)[C@H](CCCNC(=N)N)NC(=O)c3cc(NC(=O)[C@H](CCC(=O)O)NC(=O)c4cc(NC(=O)[C@@H](N)CCCNC(=N)N)ccc4OC)ccc3OC)ccc2OC)cc1C(N)=O` [Compound 325], the concentration for a half-maximal effect (EC50) is over 1000 µg/mL in assay [1]; 2700 nM with Unfractionated heparin (setting [2]); 505 nM in the assay on enoxaparin (setting [4]); 213 nM with tinzaparin (setting [5]); 2230 nM with fondaparinux (setting [6]).

With `COc1cc(OC)c(C(=O)N[C@H]2CC[C@H](NC(=O)c3cc(C(=O)N[C@H]4CC[C@H](N=C(N(C)C)N(C)C)CC4)c(OC)cc3OC)CC2)cc1C(N)=O` [Compound 389], the EC50 is over 10000 nM in the assay on Unfractionated heparin (setting [2]); over 10 µM in the assay with UFH (setting [3]); 5610 nM in the assay on enoxaparin (setting [4]); 6730 nM in the assay with tinzaparin (setting [5]); over 10000 nM in the assay on fondaparinux (setting [6]).

Regarding `COc1ccc(NC(=O)[C@@H](CCCNC(N)=O)NC(=O)c2cc(NC(=O)[C@@H](CCCNC(=N)N)NC(=O)c3cc(NC(=O)[C@@H](CCCNC(=N)N)NC(=O)c4cc(NC(=O)[C@H](N)CCCNC(N)=O)ccc4OC)ccc3OC)ccc2OC)cc1C(N)=O` [Compound 377], the EC50 in the assay with Unfractionated heparin came out at 2090 nM; in the assay on UFH it was 0.66 µM; with enoxaparin, 149 nM; with tinzaparin it was 92 nM; in the assay with fondaparinux, 1440 nM.

Consider `COc1ccc(NC(=O)[C@@H](CCCNC(=N)N)NC(=O)c2cc(NC(=O)[C@@H](CCCNC(=N)N)NC(=O)c3cc(NC(=O)[C@@H](CCCNC(=N)N)NC(=O)c4cc(NC(=O)[C@H](N)CCCNC(=N)N)ccc4OC)ccc3OC)ccc2OC)cc1C(=O)NCC(=O)O` [Compound 278], for which the “Hemolysis EC50” value in assay [1] was “no significant decrease”. Further, the EC50 was found to be 1990 nM with Unfractionated heparin (setting [2]), 150 nM in the assay on enoxaparin (setting [4]), 132 nM with tinzaparin (setting [5]) and 408 nM in the assay on fondaparinux (setting [6]).

As for `CNCNC(=O)c1cccc(C(=O)N[C@H]2CC[C@H](NC(=O)c3cc(C(=O)N[C@H]4CC[C@H](NC(=O)c5cccc(C(=O)NCCN)c5)CC4)c(OC)cc3OC)CC2)c1` [Compound 366], the EC50 is over 10000 nM with Unfractionated heparin (setting [2]); 15.5 µM in the assay on UFH (setting [3]); over 5000 nM with enoxaparin (setting [4]); over 5000 nM with tinzaparin (setting [5]); over 10000 nM in the assay on fondaparinux (setting [6]).

As to `COc1ccc(NC(=O)[C@H](CCCCN)NC(=O)c2cc(NC(=O)[C@H](CCCCN)NC(=O)c3cc(NC(=O)[C@H](CCC(=O)O)NC(=O)c4cc(NC(=O)[C@@H](N)CCCCN)ccc4OC)ccc3OC)ccc2OC)cc1C(N)=O` [Compound 317], the EC50 in assay [1] is over 1000 µg/mL; in the assay on Unfractionated heparin (setting [2]) it was 1610 nM; with enoxaparin (setting [4]), 293 nM; in the assay on tinzaparin (setting [5]), 178 nM; in the assay with fondaparinux (setting [6]), 873 nM.

For the compound `COc1ccc(NC(=O)[C@H](CCCNC(=N)N)NC(=O)c2cc(NC(=O)[C@H](CCCNC(=N)N)NC(=O)c3cc(NC(=O)[C@H](CCCNC(=N)N)NC(=O)c4cc(NC(C)=O)ccc4OC)ccc3OC)ccc2OC)cc1C(N)=O` [Compound 298], in assay [1], the “Hemolysis EC50” value is recorded as “no significant decrease”. Further, the EC50 in the assay on Unfractionated heparin (setting [2]) is 2060 nM; in the assay on enoxaparin (setting [4]), 201 nM; in the assay on tinzaparin (setting [5]), 167 nM; in the assay with fondaparinux (setting [6]) it was 334 nM.

With `COc1ccc(NC(=O)[C@H](CCCCN)NC(=O)c2cc(NC(=O)[C@H](CCCCN)NC(=O)c3cc(NC(=O)[C@H](CCCCN)NC(=O)c4cc(NC(=O)[C@@H](N)Cc5c[nH]c6ccccc56)ccc4OC)ccc3OC)ccc2OCC(=O)O)cc1C(=O)N[C@@H](Cc1c[nH]c2ccccc12)C(N)=O` [Compound 334], the half-maximal effective concentration (EC50) in assay [1] was about 15 µg/mL (≈ 10.6 µM); with Unfractionated heparin (setting [2]) it was over 10000 nM; in the assay on enoxaparin (setting [4]), 249 nM; with tinzaparin (setting [5]) it was 281 nM; in the assay with fondaparinux (setting [6]) it was 224 nM.

Turning to `COc1ccc(NC(=O)[C@H](CCCCN)NC(=O)c2cc(NC(=O)[C@H](CCCCN)NC(=O)c3cc(NC(=O)[C@H](CCCCN)NC(=O)c4cc(NC(=O)[C@@H](N)CCCCN)ccc4OC)ccc3OC)ccc2OC)cc1C(=O)N[C@@H](Cc1ccc(O)cc1)C(=O)O` [Compound 265], the “Hemolysis EC50” value in assay [1] is recorded as “no significant decrease”. Also, the EC50 with Unfractionated heparin (setting [2]) came to 1450 nM; in the assay on enoxaparin (setting [4]) it was 138 nM; in the assay with tinzaparin (setting [5]), 120 nM; in the assay with fondaparinux (setting [6]), 385 nM.

For `COc1ccc(NC(=O)[C@@H](CCCNC(=N)N)NC(=O)c2cc(NC(=O)[C@@H](CCCNC(=N)N)NC(=O)c3cc(NC(=O)[C@@H](CCCNC(=N)N)NC(=O)c4cc(NC(=O)[C@H](N)CCCNC(=N)N)ccc4OC)ccc3OC)ccc2OC)cc1C(=O)N[C@H](Cc1c[nH]c2ccccc12)C(=O)O` [Compound 303], the EC50 in assay [1] was about 500 µg/mL (≈ 351 µM); in the assay with Unfractionated heparin (setting [2]) it was over 10000 nM; in the assay with enoxaparin (setting [4]), 192 nM; in the assay with tinzaparin (setting [5]), 189 nM; in the assay with fondaparinux (setting [6]), 146 nM.

On to `COc1ccc(NC(=O)[C@@H](CCCNC(=N)N)NC(=O)c2cc(NC(=O)[C@@H](CCCNC(=N)N)NC(=O)c3cc(NC(=O)[C@@H](CCCNC(=N)N)NC(=O)c4cc(NC(C)=O)ccc4OC)ccc3OCC(=O)O)ccc2OC)cc1C(=O)N[C@H](Cc1c[nH]c2ccccc12)C(N)=O` [Compound 308], for which the EC50 is about 500 µg/mL (≈ 369 µM) in assay [1]; over 10000 nM in the assay with Unfractionated heparin (setting [2]); 157 nM in the assay on enoxaparin (setting [4]); 136 nM in the assay on tinzaparin (setting [5]); 192 nM with fondaparinux (setting [6]).

Consider `COc1ccc(NC(=O)[C@@H](CCCNC(=N)N)NC(=O)c2cc(NC(=O)[C@@H](CCCNC(=N)N)NC(=O)c3cc(NC(=O)[C@@H](CCCNC(=N)N)NC(=O)c4cc(NC(=O)[C@H](N)CCCNC(=N)N)ccc4OC)ccc3OCC(=O)O)ccc2OC)cc1C(=O)N[C@H](Cc1c[nH]c2ccccc12)C(N)=O` [Compound 307], for which the EC50 in assay [1] was about 50 µg/mL (≈ 34 µM); in the assay with Unfractionated heparin (setting [2]), 3780 nM; in the assay on enoxaparin (setting [4]) it was 120 nM; in the assay on tinzaparin (setting [5]), 118 nM; with fondaparinux (setting [6]), 118 nM.

(Values after patent US20110178104A1, “Anti-Heparin Compounds” (POLYMEDIX INC., priority 2010, published 2011).)
